Data from patent publication US6545000B1, “[1,2,4]triazolo[1,5-c]pyrimidine derivatives” (Kyowa Hakko Kogyo Co., Ltd., priority 1998, dated 2003).

Columns and labels:
[1] = molecular target: T1, Rat A2A receptor (Rattus norvegicus, UniProt P30543); experiment: Adenosine A2A receptor binding test (3H-CGS 21680 binding); details: 10^−6 mol/L test compound, rat corpus striatum
T1 construct: from tissue; host or cells: rat corpus striatum membrane preparation
Procedure: The final precipitate was suspended in 50 mmol/L Tris-HCl buffer (containing 10 mmol/L magnesium chloride and 0.02 unit/mg tissue of adenosine deaminase (manufactured by Sigma Co.)) by adding the buffer to the final precipitate so as to give a tissue concentration of 5 mg (wet weight)/mL.
Inhibition ratio (%)={1−(amount of the binding in the presence of the test compound−amount of the non-specific binding)/(amount of the total binding−amount of the non-specific binding)}×100

[2] = system: CGS 21680-induced catalepsy; experiment: Activity on CGS 21680-induced catalepsy; assay type: in vivo, mouse; details: 10 mg/kg oral; for inhibition in vivo at 10 mg/kg: Mus musculus, 1 h, percentage reduction of total score vs control group, read-out: Remission ratio (%); for Total score: total catalepsy score of 10 mice (maximum 50 points), 1 hour after administration
Procedure: This test was carried out using 10 animals per group of male ddY mice of 5 week age (22 to 25 g in body weight, Japan SLC). […] One hour after the administration of the test compound, only forelimbs or only hindlimbs of each animal were laid on a vertically arranged stand made of acryl, having a size of 4.5 cm in height and 1.0 cm in width, to measure catalepsy symptoms. All of the test compounds were administered orally in a dose of 10 mg/kg.
(§1) The effect was judged by total catalepsy scores of 10 animals in one group (the maximum score is 50 points). When total score was 40 points or less, the activity of the compounds was judged positive. The number of animals showing remission of catalepsy was expressed by the number of cases in which the catalepsy score was 4 points or less in 10 cases. The catalepsy remission ratio was expressed as the percentage reduction of the total score in the test compound-administered group to the total score in the control group.

[3] = system: reserpine-induced catalepsy; experiment: Activity on reserpine-induced catalepsy; assay type: in vivo, mouse; details: oral; for Remission ratio (%): percentage reduction of total score vs control group; for Total score: total catalepsy score of 10 mice (maximum 50 points), reserpine 5 mg/kg s.c., 1 hour after administration
Procedure: This test was carried out using 10 animals per group of male ddY mice of 5 week age (22 to 24 g in body weight, Japan SLC). […] Reserpine (5 mg/kg: apoplon, Daiichi Pharmaceutical Co., Ltd.; diluted with distilled water) was subcutaneously administered, and catalepsy-inducing activity was observed from 18 hours after the administration. […] Each test compound was suspended in distilled water for injection containing 0.5% MC (manufactured by Otsuka Pharmaceutical Co., Ltd.) The suspension containing each of the test compounds or a solution containing no test compound (distilled water for injection containing 0.5% MC (manufactured by Otsuka Pharmaceutical Co., Ltd.); control) was orally administered (0.1 mL per 10 g mouse body weight) and, one hour after the administration of test compound, only forelimbs or only hindlimbs of each animal were laid on a stand having a size of 4.5 cm in height and 1.0 cm in width, to measure catalepsy symptoms.
as §1, with “maximum” for “maximum score”, “When the” for “When”, “test compound” for “compounds”

T1 sequence (P30543 whole entry): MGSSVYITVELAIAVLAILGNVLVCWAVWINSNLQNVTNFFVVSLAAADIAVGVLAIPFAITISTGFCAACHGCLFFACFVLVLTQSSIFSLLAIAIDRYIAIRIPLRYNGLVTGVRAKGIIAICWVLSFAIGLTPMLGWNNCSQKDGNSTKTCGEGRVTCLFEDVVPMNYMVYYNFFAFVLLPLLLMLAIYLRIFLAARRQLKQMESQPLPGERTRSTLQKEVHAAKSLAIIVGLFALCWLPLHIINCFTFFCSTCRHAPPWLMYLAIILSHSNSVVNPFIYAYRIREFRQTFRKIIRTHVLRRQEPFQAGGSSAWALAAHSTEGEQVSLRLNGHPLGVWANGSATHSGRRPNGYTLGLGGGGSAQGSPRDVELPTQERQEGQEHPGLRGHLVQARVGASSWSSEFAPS

CC(O)(CCN1CCN(c2cc3nc(-c4ccco4)nn3c(N)n2)CC1)c1ccccc1 (centres unmarked) [Compound 9, 5-Amino-2-(2-furyl)-7-(4-(3-hydroxy-3-phenylbutyl)piperazinyl)[1,2,4]triazolo[1,5-c]pyrimidine]
melting point: 123 to 124 °C | Rat A2A receptor inhibition ratio (%) [1]: 89%

CCC(C)(O)CCN1CCN(c2cc3nc(-c4ccco4)nn3c(N)n2)CC1 (centres unmarked) [Compound 8, 5-Amino-2-(2-furyl)-7-(4-(3-hydroxy-3-methylpentyl)piperazinyl)[1,2,4]triazolo[1,5-c]pyrimidine]
melting point: 196 to 197 °C | Rat A2A receptor inhibition ratio (%) [1]: 84%

CCC(C)(O)CN1CCN(c2cc3nc(-c4ccco4)nn3c(N)n2)CC1 (centres unmarked) [Compound 2, 5-Amino-2-(2-furyl)-7-(4-(2-hydroxy-2-methylbutyl)piperazinyl)[1,2,4]triazolo[1,5-c]pyrimidine]
melting point: 212 °C | Rat A2A receptor inhibition ratio (%) [1]: 84%

Nc1nc(N2CCN(Cc3cn4ccncc4n3)CC2)cc2nc(-c3ccco3)nn12 [Compound 16, 5-Amino-2-(2-furyl)-7-(4-(imidazo[1,2-a]pyrazin-2-ylmethyl)piperazinyl)[1,2,4]triazolo[1,5-c]pyrimidine]
melting point: 242 to 244 °C | Rat A2A receptor inhibition ratio (%) [1]: 88%

Cc1cc(CN2CCN(c3cc4nc(-c5ccco5)nn4c(N)n3)CC2C)no1 (centres unmarked) [Compound 22, 5-Amino-2-(2-furyl)-7-(3-methyl-4-(5-methylisoxazol-3-ylmethyl)piperazinyl)[1,2,4]triazolo[1,5-c]pyrimidine]
inhibition in vivo at 10 mg/kg [2]: 98% | Total score [2]: 1 | Rat A2A receptor inhibition ratio (%) [1]: 84% | Remission ratio (%) [3]: 74% | Total score [3]: 13

Nc1nc(N2CCN(Cc3cn4ccccc4n3)CC2)cc2nc(-c3ccco3)nn12 [Compound 15, 5-Amino-2-(2-furyl)-7-(4-(imidazo[1,2-a]pyridin-2-ylmethyl)piperazinyl)[1,2,4]triazolo[1,5-c]pyrimidine]
melting point: 220 to 221 °C | Rat A2A receptor inhibition ratio (%) [1]: 92%

Nc1nc(N2CCN(Cc3ccc4c(c3)NC(=O)CO4)CC2)cc2nc(-c3ccco3)nn12 [Compound 27, 5-Amino-2-(2-furyl)-7-(4-(3-oxo-3,4-dihydro-2H-benzo[1,4]oxazin-6-ylmethyl)piperazinyl)[1,2,4]triazolo[1,5-c]pyrimidine]
inhibition in vivo at 10 mg/kg [2]: 92% | Total score [2]: 4 | Rat A2A receptor inhibition ratio (%) [1]: 96%

Cc1onc(-c2ccccc2)c1CN1CCN(c2cc3nc(-c4ccco4)nn3c(N)n2)CC1 [Compound 25, 5-Amino-2-(2-furyl)-7-(4-(5-methyl-3-phenylisoxazol-4-ylmethyl)piperazinyl)[1,2,4]triazolo[1,5-c]pyrimidine]
melting point: 244 to 246 °C | Rat A2A receptor inhibition ratio (%) [1]: 95%

CC(C)(O)CCCCN1CCN(c2cc3nc(-c4ccco4)nn3c(N)n2)CC1 [Compound 14, 5-Amino-2-(2-furyl)-7-(4-(5-hydroxy-5-methylhexyl)piperazinyl)[1,2,4]triazolo[1,5-c]pyrimidine]
inhibition in vivo at 10 mg/kg [2]: 82% | Total score [2]: 9 | Remission ratio (%) [3]: 76% | Total score [3]: 12

Cc1cc(C(C)N2CCN(c3cc4nc(-c5ccco5)nn4c(N)n3)CC2)no1 (centres unmarked) [Compound 23, 5-Amino-2-(2-furyl)-7-(4-(1-(5-methylisoxazol-3-yl)ethyl)piperazinyl)[1,2,4]triazolo[1,5-c]pyrimidine]
Rat A2A receptor inhibition ratio (%) [1]: 75%

Nc1nc(N2CCN(Cc3nc4ccccc4[nH]3)CC2)cc2nc(-c3ccco3)nn12 [Compound 18, 5-Amino-7-(4-(benzimidazol-2-ylmethyl)piperazinyl)-2-(2-furyl)[1,2,4]triazolo[1,5-c]pyrimidine]
melting point: 284 to 286 °C | Rat A2A receptor inhibition ratio (%) [1]: 96%

Nc1nc(N2CCN(Cc3ccc4nsnc4c3)CC2)cc2nc(-c3ccco3)nn12 [Compound 20, 5-Amino-7-(4-(benzo-2,1,3-thiadiazol-5-ylmethyl)piperazinyl)-2-(2-furyl)[1,2,4]triazolo[1,5-c]pyrimidine]
inhibition in vivo at 10 mg/kg [2]: 90% | Total score [2]: 5

Nc1nc(N2CCN(Cc3cn4cccnc4n3)CC2)cc2nc(-c3ccco3)nn12 [Compound 17, 5-Amino-2-(2-furyl)-7-(4-(imidazo[1,2-a]pyrimidin-2-ylmethyl)piperazinyl)[1,2,4]triazolo[1,5-c]pyrimidine]
melting point: 244 to 246 °C | Rat A2A receptor inhibition ratio (%) [1]: 90%

Nc1nc(N2CCN(Cc3ccc4c(c3)OCC(=O)N4)CC2)cc2nc(-c3ccco3)nn12 [Compound 26, 5-Amino-2-(2-furyl)-7-(4-(3-oxo-3,4-dihydro-2H-benzo[1,4]oxazin-7-ylmethyl)piperazinyl)[1,2,4]triazolo[1,5-c]pyrimidine]
melting point: 287 to 288 °C | Rat A2A receptor inhibition ratio (%) [1]: 94%

COC(C)(C)CCN1CCN(c2cc3nc(-c4ccco4)nn3c(N)n2)CC1 [Compound 11, 5-Amino-2-(2-furyl)-7-(4-(3-methoxy-3-methylbutyl)piperazinyl)[1,2,4]triazolo[1,5-c]pyrimidine]
melting point: 194 to 195 °C | Rat A2A receptor inhibition ratio (%) [1]: 88%

Nc1nc(N2CCN(CC3(O)CC3)CC2)cc2nc(-c3ccco3)nn12 [Compound 5, 5-Amino-2-(2-furyl)-7-(4-(1-hydroxycyclopropylmethyl)piperazinyl)[1,2,4]triazolo[1,5-c]pyrimidine]
inhibition in vivo at 10 mg/kg [2]: 90% | Total score [2]: 5 | Remission ratio (%) [3]: 76% | Total score [3]: 12

CC(C)(O)CCN1CCN(c2cc3nc(-c4ccco4)nn3c(N)n2)CC1 [Compound 7, 5-Amino-2-(2-furyl)-7-(4-(3-hydroxy-3-methylbutyl)piperazinyl)[1,2,4]triazolo[1,5-c]pyrimidine]
Total score [2]: 8 | Total score [3]: 23

Nc1nc(N2CCN(Cc3nc4ccccc4s3)CC2)cc2nc(-c3ccco3)nn12 [Compound 19, 5-Amino-7-(4-(benzothiazol-2-ylmethyl)piperazinyl)-2-(2-furyl)[1,2,4]triazolo[1,5-c]pyrimidine]
inhibition in vivo at 10 mg/kg [2]: 90% | Total score [2]: 5 | Rat A2A receptor inhibition ratio (%) [1]: 95% | Remission ratio (%) [3]: 62% | Total score [3]: 19

Cc1nocc1CN1CCN(c2cc3nc(-c4ccco4)nn3c(N)n2)CC1 [Compound 24, 5-Amino-2-(2-furyl)-7-(4-(3-methylisoxazol-4-ylmethyl)piperazinyl)[1,2,4]triazolo[1,5-c]pyrimidine]
inhibition in vivo at 10 mg/kg [2]: 96% | Total score [2]: 2 | Rat A2A receptor inhibition ratio (%) [1]: 96% | Remission ratio (%) [3]: 72% | Total score [3]: 14

CC(C)(O)CCCN1CCN(c2cc3nc(-c4ccco4)nn3c(N)n2)CC1 [Compound 13, 5-Amino-2-(2-furyl)-7-(4-(4-hydroxy-4-methylpentyl)piperazinyl)[1,2,4]triazolo[1,5-c]pyrimidine]
inhibition in vivo at 10 mg/kg [2]: 80% | Total score [2]: 10

CC(O)(CN1CCN(c2cc3nc(-c4ccco4)nn3c(N)n2)CC1)c1ccccc1 (centres unmarked) [Compound 3, 5-Amino-2-(2-furyl)-7-(4-(2-hydroxy-2-phenylpropyl)piperazinyl)[1,2,4]triazolo[1,5-c]pyrimidine]
melting point: 267 to 268 °C | Rat A2A receptor inhibition ratio (%) [1]: 93%

CCC(O)(CC)CCN1CCN(c2cc3nc(-c4ccco4)nn3c(N)n2)CC1 [Compound 10, 5-Amino-2-(2-furyl)-7-(4-(3-ethyl-3-hydroxypentyl)piperazinyl)[1,2,4]triazolo[1,5-c]pyrimidine]
inhibition in vivo at 10 mg/kg [2]: 78% | Total score [2]: 11 | Rat A2A receptor inhibition ratio (%) [1]: 87%

COC(C)(C)CN1CCN(c2cc3nc(-c4ccco4)nn3c(N)n2)CC1 [Compound 6, 5-Amino-2-(2-furyl)-7-(4-(2-methoxy-2-methylpropyl)piperazinyl)[1,2,4]triazolo[1,5-c]pyrimidine]
inhibition in vivo at 10 mg/kg [2]: 84% | Total score [2]: 8 | Remission ratio (%) [3]: 78% | Total score [3]: 11
